Test results from publication PMC3366684, “Studies on the Synthesis of Derivatives of Marine-Derived Bostrycin and Their Structure-Activity Relationship against Tumor Cells” (Marine Drugs, 2012).
Values belong to the molecule of their own block, whether it stands above or below them.

Experiments:
[1] = test system: MDA-MB-435 cells; experiment: MTT cytotoxicity assay, MDA-MB-435; format: cell-based, human; conditions: MDA-MB-435; human breast cancer cell line; MTT, 48 h exposure; mean ± SD, three independent experiments
Method: (§1) All compounds were evaluated for their in vitro cytotoxic activity against five human cancer cell lines including human breast MCF-7, human breast MDA-MB-435, human lung A549, human liver HepG2 and human colon HCT-116, and compared with their effects on the immortalized human breast epithelial cell line MCF-10A by MTT assay using epirubicin (an anticancer drug used widely in the clinic) as positive control.
(§2) MCF-7, MDA-MB-435, A549, HepG2 and HCT-116 cells were cultured in Dulbecco’s modification Eagle’s medium (DMEM, Invitrogen, Carlsbad, CA, USA) supplemented with 10% fetal bovine serum (FBS, Hyclone, Logan, UT, USA), 2 mM L-glutamine, 100 μg/mL streptomycin and 100 U/mL penicillin (Invitrogen). MCF-10A cells were cultured in keratinocyte serum free medium (KSFM) supplemented with 0.1–0.2 ng/mL human recombinant epidermal growth factor and 20–30 μg/mL bovine pituitary extract (Invitrogen). The cells were incubated at 37 °C in a humidified atmosphere with 5% CO2.
(§3) Cells were harvested during logarithmic growth phase and seeded in 96-well plates at a density of 1 × 10^4 cells/mL, and cultured at 37 °C in a humidified incubator (5% CO2) for 24 h, followed by exposure to various concentrations of compounds tested for 48 h. Subsequently 20 μL of MTT (Genview, Houston, TX, USA) solution (5 mg/mL) was added to each well and mixed, the cells were then incubated for an additional 4 h. Culture supernatant was moved, 150 μL of DMSO (Sangon Biotech, Shanghai, China) was added to each well to fully dissolve the MTT-formazan crystals. Cell growth inhibition was determined by measuring the absorbance (Abs) at λ = 570 nm using a microplate reader and calculated according to the following equation:
(§4) Growth inhibition = (1 − OD of treated cells/OD of control cells) × 100%
(§5) The half maximal inhibitory concentrations (IC50) were obtained from liner regression analysis of the concentration-response curves plotted for each tested compound.

[2] = test system: HepG2 cells; experiment: MTT cytotoxicity assay, HepG2; format: cell-based, human; conditions: Homo sapiens, HepG2, 48 h, human liver cancer cell line; MTT, 48 h exposure; mean ± SD, three independent experiments
Method: as §1, §2, §3, §4, §5

[3] = MTT cytotoxicity assay, MCF-10A; format: cell-based; conditions: MCF-10A cells, immortalized human breast epithelial cell line, 48 h exposure, mean ± SD, three independent experiments
Method: as §1, §2, §3, §4, §5

[4] = test system: A549 cells; experiment: MTT cytotoxicity assay, A549; format: cell-based, human; conditions: A549; human lung cancer cell line; MTT, 48 h exposure; mean ± SD, three independent experiments
Method: as §1, §2, §3, §4, §5

[5] = test system: MCF-7 cells; experiment: MTT cytotoxicity assay, MCF-7; format: cell-based, human; conditions: MCF7; human breast cancer cell line; MTT, 48 h exposure; mean ± SD, three independent experiments
Method: as §1, §2, §3, §4, §5

[6] = test system: HCT-116 cells; experiment: MTT cytotoxicity assay, HCT-116; format: cell-based, human; conditions: HCT-116; human colon cancer cell line; MTT, 48 h exposure; mean ± SD, three independent experiments
Method: as §1, §2, §3, §4, §5

Compound: COC1=CC(=O)c2c(O)c3c(c(O)c2C1=O)C[C@](C)(O)[C@H](O)[C@H]3O [Compound 1, Bostrycin]
IC50 [1]: 2.82 ± 0.17 µM
IC50 [2]: 7.71 ± 0.72 µM
IC50 at 48 h [3]: 14.1 ± 0.58 µM
IC50 [4]: 2.63 ± 0.33 µM
IC50 [5]: 2.18 ± 0.14 µM
IC50 [6]: 4.78 ± 0.03 µM

Compound: COC1=CC(=O)c2c(O)c3c(c(O)c2C1=O)C[C@](C)(O)[C@H](O)C3 [Compound 2, Deoxybostrycin]
IC50 [1]: 3.19 ± 0.92 µM
IC50 [2]: 9.99 ± 0.55 µM
IC50 at 48 h [3]: 13.8 ± 0.76 µM
melting point: 224 to 225 °C
IC50 [4]: 4.49 ± 0.13 µM
IC50 [5]: 2.69 ± 0.31 µM
IC50 [6]: 5.69 ± 0.25 µM

Compound: COC1=CC(=O)c2c(cc3c(c2O)C[C@@H](O)[C@@](C)(O)C3)C1=O [Compound 3, Nigrosporin B]
IC50 [1]: 2.91 ± 0.18 µM
IC50 [2]: 31 ± 0.71 µM
IC50 at 48 h [3]: 28.6 ± 0.91 µM
melting point: > 300 °C
IC50 [4]: 4.72 ± 0.17 µM
IC50 [5]: 6.19 ± 0.6 µM
IC50 [6]: 4.7 ± 0.39 µM

Compound: COC1=CC(=O)c2c(O)c3c(c(O)c2C1=O)C[C@]1(C)OC(C)(C)O[C@@H]1[C@H]3O [Compound 5, 2,3-O-(isopropylidene) Bostrycin]
IC50 [1]: 5.96 ± 0.21 µM
IC50 [2]: 37 ± 1.97 µM
IC50 at 48 h [3]: 18.1 ± 1.3 µM
melting point: 228 to 229 °C
IC50 [4]: 4.25 ± 0.16 µM
IC50 [5]: 6.87 ± 0.33 µM
IC50 [6]: 11 ± 1.35 µM

Compound: COC1=CC(=O)c2c(O)c3c(c(O)c2C1=O)C[C@]1(C)OC(C=C(C)C)O[C@@H]1[C@H]3O (some centres unmarked) [Compound 6, 2,3-O-(3′-methylbut-2′-enyl) Bostrycin]
IC50 [1]: 11.7 ± 1.18 µM
IC50 [2]: 22.3 ± 2.89 µM
IC50 at 48 h [3]: 34.1 ± 0.85 µM
melting point: 200 to 201 °C
IC50 [4]: 5.5 ± 0.24 µM
IC50 [5]: 7.99 ± 0.09 µM
IC50 [6]: 7.83 ± 0.32 µM

Compound: COC1=CC(=O)c2c(O)c3c(c(O)c2C1=O)C[C@]1(C)OCO[C@@H]1[C@H]3OCO [Compound 7, 1-O-(hydroxymethyl)-2,3-O-(methylene) Bostrycin]
IC50 [1]: 4.25 ± 0.57 µM
IC50 [2]: 4.58 ± 0.5 µM
IC50 at 48 h [3]: 4.79 ± 0.52 µM
melting point: 233 to 234 °C
IC50 [4]: 0.78 ± 0.04 µM
IC50 [5]: 2.52 ± 0.26 µM
IC50 [6]: 3.06 ± 0.1 µM

Compound: COC1=CC(=O)c2c(O)c3c(c(O)c2C1=O)C[C@]1(C)OC(=O)O[C@@H]1[C@H]3O [Compound 8, 2,3-O-(carbonyl) Bostrycin]
IC50 [1]: 1.26 ± 0.12 µM
IC50 [2]: 3.32 ± 0.58 µM
IC50 at 48 h [3]: 21.7 ± 1.45 µM
melting point: 246 to 247 °C
IC50 [4]: 0.52 ± 0.02 µM
IC50 [5]: 1.59 ± 0.16 µM
IC50 [6]: 2.92 ± 0.06 µM

Compound: CNC1=CC(=O)c2c(O)c3c(c(O)c2C1=O)C[C@](C)(O)[C@H](O)[C@H]3O [Compound 9, 6-(Methylamino)-6-demethoxybostrycin]
IC50 [1]: > 50 µM
IC50 [2]: 22.4 ± 1.16 µM
IC50 at 48 h [3]: > 50 µM
IC50 [4]: 31.1 ± 1.94 µM
IC50 [5]: 3.58 ± 0.65 µM
IC50 [6]: 34.2 ± 1.27 µM

Compound: CCCNC1=CC(=O)c2c(O)c3c(c(O)c2C1=O)C[C@](C)(O)[C@H](O)[C@H]3O [Compound 10, 6-(n-Propylamino)-6-demethoxybostrycin]
IC50 [1]: > 50 µM
IC50 [2]: 18 ± 0.6 µM
IC50 at 48 h [3]: > 50 µM
melting point: 210 to 211 °C
IC50 [4]: 21.5 ± 1.43 µM
IC50 [5]: 14 ± 0.98 µM
IC50 [6]: 26.4 ± 0.89 µM

Compound: CCCCNC1=CC(=O)c2c(O)c3c(c(O)c2C1=O)C[C@](C)(O)[C@H](O)[C@H]3O [Compound 11, 6-(n-Butylamino)-6-demethoxybostrycin]
IC50 [1]: > 50 µM
IC50 [2]: 35.7 ± 1.29 µM
IC50 at 48 h [3]: > 50 µM
melting point: 236 to 237 °C
IC50 [4]: 25.1 ± 0.74 µM
IC50 [5]: 1.08 ± 0.21 µM
IC50 [6]: 36.5 ± 0.53 µM

Compound: CCCCCCNC1=CC(=O)c2c(O)c3c(c(O)c2C1=O)C[C@](C)(O)[C@H](O)[C@H]3O [Compound 12, 6-(n-Hexylamino)-6-demethoxybostrycin]
IC50 [1]: 4.25 ± 0.75 µM
IC50 [2]: 12.9 ± 0.96 µM
melting point: 203 to 204 °C
IC50 [4]: 3.74 ± 0.67 µM
IC50 [5]: 4.87 ± 0.23 µM
IC50 [6]: 4.06 ± 0.65 µM

Compound: COc1ccc(NC2=CC(=O)c3c(O)c4c(c(O)c3C2=O)C[C@](C)(O)[C@H](O)[C@H]4O)cc1 [Compound 16, 6-(p-Methoxyphenylamino)-6-demethoxybostrycin]
IC50 [1]: 36.4 ± 2.08 µM
IC50 [2]: 30.3 ± 1.63 µM
melting point: 202 to 203 °C
IC50 [4]: 41.4 ± 2.86 µM
IC50 [5]: 39.4 ± 0.68 µM
IC50 [6]: 43.3 ± 1.56 µM

Compound: COc1cccc2c1C(=O)c1c(O)c3c(c(O)c1C2=O)C[C@@](O)(C(=O)CO)C[C@@H]3O[C@H]1C[C@H](N)[C@@H](O)[C@H](C)O1 [epirubicin, reference compound]
IC50 [1]: 0.56 ± 0.06 µM
IC50 [2]: 0.96 ± 0.02 µM
IC50 at 48 h [3]: 0.48 ± 0.08 µM
IC50 [4]: 0.61 ± 0.05 µM
IC50 [5]: 0.96 ± 0.08 µM
IC50 [6]: 0.48 ± 0.03 µM

Second part, led by results:

melting point: 199 to 200 °C
Compound: C[C@]1(O)Cc2c(O)c3c(c(O)c2[C@H](O)[C@H]1O)C(=O)C=C(N1CCCCC1)C3=O [Compound 20, 6-(Piperidin-1-yl)-6-demethoxybostrycin]
IC50 [1]: 4.04 ± 0.35 µM
IC50 [2]: 1.99 ± 0.17 µM
IC50 [4]: 3.16 ± 0.23 µM
IC50 [5]: 3.14 ± 0.31 µM
IC50 [6]: 2.81 ± 0.31 µM

melting point: 162 to 163 °C
Compound: CC1CCN(C2=CC(=O)c3c(O)c4c(c(O)c3C2=O)C[C@](C)(O)[C@H](O)[C@H]4O)CC1 [Compound 21, 6-(4′-Methylpiperidin-1-yl)-6-demethoxybostrycin]
IC50 [1]: 6.38 ± 0.47 µM
IC50 [2]: 6.09 ± 1.14 µM
IC50 [4]: 3.06 ± 0.46 µM
IC50 [5]: 4.62 ± 0.44 µM
IC50 [6]: 3.25 ± 0.67 µM

melting point: 221 to 222 °C
Compound: C[C@]1(O)Cc2c(O)c3c(c(O)c2[C@H](O)[C@H]1O)C(=O)C=C(N1CCC(c2ccccc2)CC1)C3=O [Compound 22, 6-(4′-Phenylpiperidin-1-yl)-6-demethoxybostrycin]
IC50 [1]: 0.95 ± 0.13 µM
IC50 [2]: 6.61 ± 1.12 µM
IC50 [4]: 0.76 ± 0.03 µM
IC50 [5]: 4.81 ± 0.4 µM
IC50 [6]: 0.75 ± 0.05 µM

melting point: 156 to 158 °C
Compound: C[C@]1(O)Cc2c(O)c3c(c(O)c2[C@H](O)[C@H]1O)C(=O)C(SCCO)=C(SCCO)C3=O [Compound 26, 6,7-bis(2′-Hydroxyethylthio)-6-demethoxybostrycin]
IC50 [1]: 13.3 ± 0.2 µM
IC50 [2]: 22.7 ± 1.95 µM
IC50 [4]: 26.1 ± 3.15 µM
IC50 [5]: 14.4 ± 0.42 µM
IC50 [6]: 12 ± 1.53 µM

melting point: 150 to 151 °C
Compound: C[C@]1(O)Cc2c(O)c3c(c(O)c2[C@H](O)[C@H]1O)C(=O)C(SCCCO)=C(SCCCO)C3=O [Compound 27, 6,7-bis(3′-Hydroxy-n-propylthio)-6-demethoxybostrycin]
IC50 [1]: 3.19 ± 0.15 µM
IC50 [2]: 3.18 ± 0.75 µM
IC50 [4]: 7.31 ± 0.58 µM
IC50 [5]: 6.01 ± 0.39 µM
IC50 [6]: 3.08 ± 0.35 µM

melting point: 146 to 147 °C
Compound: CC1SC2=C(SC1C)C(=O)c1c(O)c3c(c(O)c1C2=O)C[C@](C)(O)[C@H](O)[C@H]3O (some centres unmarked) [Compound 29, 6,7-(Butan-2′,3′-yl-dithio)-6-demethoxybostrycin]
IC50 [1]: 0.55 ± 0.11 µM
IC50 [2]: 2.55 ± 0.55 µM
IC50 [4]: 4.06 ± 0.35 µM
IC50 [5]: 3.18 ± 0.22 µM
IC50 [6]: 0.73 ± 0.02 µM
